Test results as given in patent US20230149355A1, “COMPOSITIONS AND METHODS FOR MODULATING TRP CHANNEL ACTIVITY” (priority 2020, published 2023).

Tests used:
zebrafish EECs (Trpa1) = assay: In vivo EEC calcium, Tg(neurod1:Gcamp6f) zebrafish; details: trpa1b-dependent
Description: To record in vivo EEC activity using the Tg(neurod1:Gcamp6f) system, a published protocol with slight modification (Ye et al., 2019) was used. In brief, unanesthetized zebrafish larvae were gently mounted in 3% methylcellulose. Excess water was removed and zebrafish larvae were gently positioned with right side up. Zebrafish were then moved onto an upright Leica M205 FA fluorescence stereomicroscope equipped with a Leica DFC 365FX camera. The zebrafish larvae were allowed to recover for 2 mins before 100 μL of test agent was pipetted directly in front of the mouth region. Images were then recorded every 10 seconds. The data shown in FIG. 2O-R, depicting the EEC responses to E. tarda stimulation, were obtained by mounting unanesthetized zebrafish larvae in 1% low melting agarose. A window (5×5 mm) was cut to expose the head region of the zebrafish. 10 μL of E. tarda culture [˜10^9 Colony Forming Unit (CFU)] were delivered at the zebrafish mouth area. Images were recorded every 10 secs for 20 mins. Image processing and analysis were performed using FIJI software. Time-lapse fluorescence images were first aligned to correct for experimental drift using the plugin “align slices in stack.” Normalized correlation coefficient matching and bilinear interpolation methods for subpixel translation were used for aligning slices (Tseng et al., 2012). The plugin “rolling ball background subtraction” with the rolling ball radius=10 pixels was used to remove the large spatial variation of background intensities. The Gcamp6f fluorescence intensity in the intestinal region was then calculated for each time point. The ratio of maximum fluorescence (Fmax) and the initial fluorescence (F0) was used to measure EEC calcium responses.
For EEC Trpa1 activation using the Optovin platform, zebrafish larvae were treated with 10 μM Optovin overnight. Following Optovin treatment, unanesthetized zebrafish were mounted in 1% LMA and imaged under a 780 upright Zeiss confocal microscope using 20× water objective lenses. For all the experiments, the mid-intestine region was imaged (FIG. 10D). The intestinal epithelium was selected as the region of interest (ROI) (FIG. 10A). Serial images were obtained at 1 s/frame. A 405 nm pulse of light was applied to the ROI at 1 pulse/10 s. For some experiments (FIG. 7D-F, FIG. 10B-G), the images were obtained at 10 s/frame. When measuring Optovin effects on intestinal motility in ret−/−, sox10−/− or tph1b−/− zebrafish larvae, embryos were collected from heterozygous zebrafish. ret−/− zebrafish were identified by lack of ENS and deflated swim bladder (Knight et al., 2011), sox10−/− zebrafish were identified by lack of pigment (Rolig et al., 2017), and tph1b−/− zebrafish were identified by PCR-based genotyping (Tornini et al., 2017).
To determine whether Optovin-UV or ChR2 was sufficient to activate EECs, Tg(neurod1:Gcamp6f) zebrafish were used. […] The Gcamp6f signal was recorded with 488 nm laser intensity less than 0.5. The zebrafish intestinal motility is quantified through recorded image series of zebrafish intestine using the method similar as previously described (Ganz et al., 2018). […] When calculating the mean velocity, only the mean velocity magnitude was calculated, which therefore doesn't account for the movement direction. The MTrackJ FIJI plugin was used to quantify the mean velocity magnitude (Meijering et al., 2012).

vagal sensory neurons [1] = assay: In vivo calcium imaging of vagal sensory ganglia after microgavage; parameters: species or system zebrafish; details: WT; enteric microgavage ~8 nl, AITC 100 mM, indole 1 mM, IAld 1 mM
Description: For delivering bacterial or chemicals specifically to the intestine, the established microgavage technique (Cocchiaro and Rawls, 2013) was adopted. Zebrafish were anesthetized with 1 mg/mL α-Bungarotoxin (α-BTX) and the gavage procedure was performed as previously described using microinjection station (Cocchiaro and Rawls, 2013). For bacteria gavage experiments, 1 ml of overnight bacterial culture was harvested, pelleted, washed with PBS and resuspended in 100 ul PBS.˜8 nl was then delivered into the zebrafish intestine using microgavage. The gavaged zebrafish was then transferred into egg water and mounted in 1% LMA for imaging. For chemical gavage experiments, ˜8 nl of AITC (100 mM), indole (1 mM) and IAld (1 mM) was gavaged into the intestine.
Tg(neurod1:Gcamp6f); Tg(neurod1:TagRFP) zebrafish were used to record vagal sensory ganglia calcium activity in vivo. Zebrafish were anesthetized with 1 mg/mL α-Bungarotoxin (α-BTX) and gavaged with chemical compounds or bacteria as described (Naumann et al., 2016). Zebrafish larvae were mounted in 1% LMA and imaged under a Zeiss 780 upright confocal microscope. Z-stack images of the entire vagal ganglia were collected as serial images at 10 mins/frame and processed in FIJI. Individual vagal sensory neurons were identified and the Gcamp6f to TagRFP fluorescence ratios of individual vagal sensory neurons were calculated.

vagal sensory neurons [2] = assay: pERK immunofluorescence of vagal ganglia after microgavage; type: in vivo, zebrafish
Description: To quantify vagal activity by pERK staining, published protocol with slight modification (Randlett et al., 2015) was used. Zebrafish larvae were quickly collected by funneling through a 0.75 mm cell strainer and dropped into a 5 mL petri dish containing ice cold fix buffer (2.5% formalin+0.25% Triton 100). Larvae were fixed overnight at 4° C., then washed 3 times in PT (PBS+0.3% Triton 100), treated with 150 mM Tris-HCl (PH=9) for 15 mins at 70° C., washed with PT and digested with 0.05% trypsin-EDTA on ice for 45 mins. Following digestion, samples were then washed with PT and transferred into block solution [PT+1% bovine serum albumin (BSA, Fisher)+2% normal goat serum (NGS, Sigma)+1% dimethyl sulfoxide (DMSO)]. The primary antibodies [pERK (Cell signaling); tERK (Cell signaling); GFP (Aves Lab)] were diluted in block solution (1:150 for pERK; 1:150 for tERK and 1:500 for GFP) and samples were incubated in 100 μl of primary antibody overnight at 4° C. Following primary antibody incubation, samples were then washed with PT and incubated with secondary antibody overnight at 4° C. Samples were then washed with PBS, mounted in 1% LMA and imaged using a Zeiss 780 upright confocal microscope.
For delivering bacterial or chemicals specifically to the intestine, the established microgavage technique (Cocchiaro and Rawls, 2013) was adopted. […]

zebrafish EECs = assay: In vivo EEC activity, Tg(neurod1:CaMPARI) zebrafish
Text: CaMPARI undergoes permanent green-to-red photoconversion (PC) under 405 nm light when calcium is present. This permanent conversion records the calcium activity for all areas illuminated by PC-light. Red fluorescence intensity correlates with calcium activity during photoconversion (Fosque et al., 2015). In the Tg(neurod1:CaMPARI) zebrafish line, the CaMPARI (calcium-modulated photoactivatable ratiometric integrator) transgene is expressed under control of the −5 kb promoter cloned from the zebrafish neurod1 locus. CaMPARI mRNA is transcribed and the CaMPARI protein is expressed in cells that are able to activate the neurod1 promoter. There are multiple cell types in the zebrafish body that are sufficient to activate the neurod1 promoter, including all EECs in the intestine (Ye et al., 2019). CaMPARI protein is a calcium indicator protein that binds calcium and converts from green fluorescence to red fluorescence in the presence of UV light. This protein is engineered and described in detail in a previous publication (Fosque et al., 2015). This transgenic model was used to measure the level of intracellular calcium in EECs. […]

mouse duodenum = assay: Amperometric measurement of 5-HT secretion, mouse small intestine; details: 50 μM HC030031
Text: (§1) These experiments using C57BL/6J mice were approved by the Flinders University Animal Welfare Committee (number 965-19) and human ileum tissue was collected from resected small and large intestine from patients that gave written informed consent under the approval of the Southern Adelaide Clinical Human Research Ethics Committee (number 50.07) as previous (Sun et al., 2019a). Mice were euthanized at 8 to 12 weeks by isoflurane overdose followed by cervical dislocation. The duodenum was removed and placed in Krebs solution oxygenated with 95% O2, 5% CO2. A midline incision was made along the duodenum to create a flat sheet, the section was pinned with the mucosal side up in an organ bath lined with Sylgard and containing oxygenated Krebs solution. Serotonin release was measured using amperometry. A carbon-fibre electrode (5-μm diameter, ProCFE; Dagan Corporation, Minneapolis, Minn.), was lowered above the mucosa and 400 mV potential was applied to the electrode causing oxidation of serotonin (Zelkas et al., 2015). […] The change in amplitude due to serotonin oxidation was recorded using an EPC-10 amplifier and Pulse software (HEKA Electronic, Lambrecht/Pfalz, Germany), and samples at 10 kHz and low-pass filtered at 1 kHz. Data was assessed as peak current during each treatment. Data was analyzed comparing all groups using one-way ANOVA with Tukey's post-hoc test. […]

human ileum = assay: Amperometric measurement of 5-HT secretion, human small intestine; details: 50 μM HC030031
Text: as §1

C=CCN=C=S [AITC, Allyl isothiocyanate]
Zebrafish EEC activation (Gcamp6f fluorescence) (zebrafish EECs (Trpa1)): EEC activation | Gcamp6f fluorescence in a subset of vagal sensory neurons (vagal sensory neurons [1]): significantly increased | Vagal activation (pERK+) in the absence of EECs (vagal sensory neurons [2]; EEC-ablated zebrafish): abrogated | Number of pERK+ vagal cells (vagal sensory neurons [2]; WT, microgavage, compared to PBS): increased

CCCCCCCCCCCC(=O)O [laurate]
Percentage of activated EECs (high red:green CaMPARI ratio) (zebrafish EECs; linoleate, oleate, laurate 1.66 mM, butyrate 2 mM, glucose 500 mM, vs water): significantly increased

CC(C)c1ccc(NC(=O)Cn2cnc3c2c(=O)n(C)c(=O)n3C)cc1 [HC030031]
Effect on E. tarda's ability to induce EEC activation (zebrafish EECs; WT fish, HC030031 280 μM, 2 hours before and during E. tarda stimulation): significantly inhibited | Effect on indole-induced 5-HT secretion, mouse small intestine (mouse duodenum): blocked | Effect on indole-induced 5-HT secretion, human small intestine (human ileum): blocked
